Experiments:
[1] = test system: Interleukin-8 (IL-8) release from human endothelial cells; assay: Inhibition of interleukin-8 (IL-8) release from human endothelial cells (HUVEC), IL-1β induced, ELISA; type: cell-based; settings: IL-1β 10 ng/ml, 6 h, IL-8 by ELISA, read-out: IC50 (50% inhibition of IL-8 release relative to the maximum effect)
Source text: 1.a) Inhibition of Interleukin-8 (IL-8) Release from Human Endothelial Cells
The expression of the human IL-8 gene is controlled by a diversity of regulatory and enhancer elements which are located above the promoter region of the gene. These elements comprise binding sites for transcription factors, and efficient transcription of the IL-8 gene is possible only through the interaction thereof with their DNA binding sites. The activity of the corresponding transcription factors can be induced by various stimuli (e.g. interleukin-1β, tumor necrosis factor-α) and can be modulated by various signal transduction pathways [H. Holtmann et al., Mol. Cell. Biol. 19, 6742-6753 (1999)].
For maximum expression of IL-8, the activity of two different transcription factors is essential: NF-κB and AP-1 [Y.-H. Chang et al., Exp. Cell Res. 278, 166-174 (2000)]. Cytokine-induced IL-8 synthesis can therefore be employed as test system for identifying and characterizing test substances which inhibit directly or indirectly the binding of NF-κB and AP-1 to their DNA binding sites.
Human umbilical cord endothelial cells (HUVEC) were purchased from CellSystems (St. Katharinen, Germany) and cultured in accordance with the supplier's recommendation in EGM-2 medium including growth additions (CellSystems, St. Katharinen, Germany) in 165 cm^2 tissue culture bottles. After the cell lawn has reached 60-80% confluence, the cells are detached from the base of the bottle by trypsin treatment, mechanically dissociated and seeded in a cell density of 5000 cells/well in 96-well microtiter plates (Corning, Wiesbaden, Germany). After 3 days, the culture medium is completely replaced by 170 μl of fresh medium per well. The cells are employed for the experiments on the following day.
To determine the inhibitory effect of the substances according to the invention on IL-8 release, they are firstly dissolved in a concentration ten times higher than the desired final concentration in the test in medium which comprises 1% DMSO. Subsequently, 20 μl of the substance solution are added per well. The formation and release of IL-8 is then induced by adding interleukin-1β (IL-1β, final concentration 10 ng/ml; Biosource GmbH, Solingen, Germany), and the cells are incubated in a CO2 incubator at 37° C. for 6 h. Thereafter, 150 μl of the cell supernatant are removed and frozen at −20° C. until the IL-8 content is measured by ELISA (Biosource GmbH, Solingen, Germany). To carry out the ELISA, the samples are thawed and are diluted 1:10, and the test is carried out in accordance with the manufacturer's instructions. The inhibitory effect of the compounds according to the invention on IL-8 release is ascertained by comparison with vehicle-treated cells.

[2] = Metabolic stability: in vitro incubation with liver microsomes; type: in vitro ADME; settings: Mouse liver microsomes; for CL: calculated from half-life in the incubation mixture; for Fmax: maximum bioavailability calculated from half-life in the incubation mixture
Method: In Vitro Incubation with Liver Microsomes:
The hepatic microsomal stability is determined by incubating the substances according to the invention with liver microsomes from various species. The incubation concentration of the substances is kept as low as possible (preferably <1 μM), as is the concentration of the microsomal proteins in the test mixture (preferably 0.2 mg of microsomal protein per ml of incubation mixture). This procedure makes it possible to operate in the linear region of the Michaelis-Menten kinetics for most compounds. A sample is taken from the incubation mixture at various times (seven times in total) to determine the remaining substance concentration. The clearance (CL) and the maximum bioavailability (Fmax) of the test substance is calculated for the respective species from the half-life of the substance in the incubation mixture.
The experiments are carried out as described in detail in J. B. Houston and D. J. Carlile [Drug Metab. Rev. 29, 891-922 (1997)].

H460 cells = assay: In vitro proliferation of tumor cells (CellTiter-Glo); type: cell-based; settings: NCI-H460; H460 human lung carcinoma cells, 24 h after addition of substance
Source text: Various types of cancer are characterized by uncontrolled, excessive proliferation of various cell types, leading to the development of metastases and tumors. The possible use of the substances according to the invention for the treatment of hyperproliferative disorders can be investigated by their activity on the cell division rate of tumor cells in vitro. The indicator between antiproliferative effect in vitro and clinical antitumor effect is well established. The therapeutic utilizability of, for example, Taxol [Silvestrini et al., Stem Cells 11, 528-535 (1993)], Taxotere [Bissery et al., Anti Cancer Drugs 6, 339 (1995)] or topoisomerase inhibitors [Edelman et al., Cancer Chemother.
The tumor cell lines such as, for example, MDA-MB-231 cells (human breast adenocarcinoma cells), H460 cells (human lung carcinoma cells) or HCT-15 cells (human colon adenocarcinoma cells) are expanded in appropriate growth media (Sigma, Taufkirchen, Germany) recommended by the supplier (e.g. LGC Promochem, Wesel, Germany). One day before adding the compounds according to the invention, the cells are distributed in a density of 3000 cells/well in 100 μl of growth medium on black 96-well microtiter plates with clear base. On the day of addition of test substance, one microtiter plate for each tumor cell line is used to determine the initial cell count present in the wells. The substances according to the invention, diluted in growth medium and DMSO, are added to the related plates. The test substances are usually added in various concentrations starting with 10 μM final concentration in the assay. The DMSO concentration in the assay is 0.1%. Twenty-four hours after addition of the substance, the cell counts in each well are determined using the CellTiter-Glo® Luminescent Cell Viability-Tests (Promega GmbH, Mannheim, Germany). The test is carried out in accordance with the manufacturer's instructions and evaluated using a luminometer. To ascertain the antiproliferative activity of the compounds according to the invention, the cell counts determined before addition of substance in related plates are subtracted, and the percentage difference of the changes in the cell counts between substance-treated and vehicle-treated cells is determined. The relative activity of the different test substances is determined by a comparison of the concentrations which bring about 50% of their maximum effect (IC50).

Compound | IC50 [1] [µM] | CL [2] [mL/min/kg] | Fmax [2] [%] | IC50 (H460 cells) [µM]
CCOc1ccc2c(c1)O[C@@]1(c3ccc(Cl)cc3)[C@H](c3ccccc3)C[C@H](O)[C@@]21O (relative stereo) [Example 23, (1S*,3S*,3aR*,8bS*)-3a-(4-Chlorophenyl)-6-ethoxy-3-phenyl-2,3,3a,8b-tetrahydrocyclopenta[b]-benzofuran-1,8b-(1H)-diol] | 0.202 | – | – | 0.0997
CN(C)CCOc1cc(OCCN(C)C)c2c(c1)O[C@@]1(c3ccc(Br)cc3)[C@H](c3ccccc3)C[C@H](O)[C@@]21O (relative stereo) [Example 22, (1S*,3S*,3aR*,8bS*)-6,8-Bis(2-dimethylaminoethoxy)-3a-(4-bromophenyl)-3-phenyl-2,3,3a,8b-tetrahydrocyclopenta[b]benzofuran-1,8b-(1H)-diol] | 0.09 | <45 | >50 | –
CCOc1cc(OCC)c2c(c1)O[C@@]1(c3ccc(Br)cc3)[C@H](c3ccccc3)[C@@H](C(=O)N(C)C)C(=O)[C@@]21O (relative stereo) [Example 12, (2R*,3S*,3aR*,8bR*)-3a-(4-Bromophenyl)-6,8-diethoxy-2-dimethylcarbamid-8b-hydroxy-3-phenyl-2,3,3a,8b-tetrahydrocyclopenta[b]benzofuran-1-one] | 0.466 | 49.5 | 45.1 | –
CN(C)CCOc1cc(OCCN(C)C)c2c(c1)O[C@@]1(c3ccc(Cl)cc3)[C@H](c3ccccc3)C[C@@H](O)[C@@]21O (relative stereo) [Example 21, (1R*,3S*,3aR*,8bS*)-6,8-Bis(2-dimethylaminoethoxy)-3a-(4-chlorophenyl)-3-phenyl-2,3,3a,8b-tetrahydrocyclopenta[b]benzofuran-1,8b-(1H)-diol] | – | – | – | 0.0015
CN(C)CCOc1cccc2c1[C@]1(O)[C@@H](O)C[C@@H](c3ccccc3)[C@]1(c1ccc(Cl)cc1)O2 (relative stereo) [Example 49, (1S*,3S*,3aR*,8bS*)-3a-(4-Chlorophenyl)-8-(2-dimethylaminoethoxy)-3-phenyl-2,3,3a,8b-tetrahydrocyclopenta[b]benzofuran-1,8b-(1H)-diol] | – | – | – | 0.0297

Further lines, with some results ahead:

IC50 [1] [µM] | CL [2] [mL/min/kg] | Fmax [2] [%] | Compound | IC50 (H460 cells) [µM]
0.214 | <45 | >50 | O[C@H]1C[C@@H](c2ccccc2)[C@]2(c3ccc(Cl)cc3)Oc3cccc(OCCN4CCCC4)c3[C@]12O (racemic) [Example 48, (1S*,3S*,3aR*,8bS*)-3a-(4-Chlorophenyl)-3-phenyl-8-(2-pyrrolidin-1-ylethoxy)-2,3,3a,8b-tetrahydrocyclopenta[b]benzofuran-1,8b-(1H)-diol] | 0.0479
0.112 | <45 | >50 | CN(C)CCOc1ccc2c(c1)O[C@@]1(c3ccc(Cl)cc3)[C@H](c3ccccc3)C[C@H](O)[C@@]21O (racemic) [Example 32, (1S*,3S*,3aR*,8bS*)-3a-(4-Chlorophenyl)-6-(2-dimethylaminoethoxy)-3-phenyl-2,3,3a,8b-tetrahydrocyclopenta[b]benzofuran-1,8b-(1H)-diol] | 0.0005
0.166 | <45 | >50 | CCOc1cc(OCC)c2c(c1)O[C@@]1(c3ccc(Cl)cc3)[C@H](c3ccccc3)C[C@@H](N)[C@@]21O (racemic) [Example 15, (1R*,3S*,3aR*,8bS*)-1-Amino-3a-(4-chlorophenyl)-6,8-diethoxy-8b-hydroxy-3-phenyl-2,3,3a,8b-tetrahydrocyclopenta[b]benzofuran] | –
0.17 | <45 | >50 | CCOc1cc(OCC)c2c(c1)O[C@@]1(c3ccc(-c4ccsc4)cc3)[C@H](c3ccccc3)C[C@@H](O)[C@@]21O (relative stereo) [Example 3, (1R*,3S*,3aR*,8bS*)-6,8-Diethoxy-3-phenyl-2,3,3a,8b-tetrahydro-3a-(4-thiophen-3-ylphenyl)-cyclopenta[b]benzofuran-1,8b-(1H)-diol] | –
0.02 | <45 | >50 | COCCOc1cc(OCCOC)c2c(c1)O[C@@]1(c3ccc(Br)cc3)[C@H](c3ccccc3)C[C@@H](O)[C@@]21O (relative stereo) [Example 18, (1R*,3S*,3aR*,8bS*)-6,8-Bis(2-methoxyethoxy)-3a-(4-bromophenyl)-3-phenyl-2,3,3a,8b-tetrahydrocyclopenta[b]benzofuran-1,8b-(1H)-diol] | –
